≈ marks a conversion by molar mass, not a printed value. Where two headings read alike, the source gives them in different places.
What was measured:
[1] = Pharmacokinetics (plasma half-life); assay type: in vivo; settings: SD Rat, mean value, read-out: Half-Life (T1/2)
Description: In order to investigate the pharmacokinetics properties of the compounds according to the present invention, the plasma half-life was determined in accordance with the method described in Antimicrobial Agents and Chemotherapy, 26(2), p.

[2] = test system: E.coli ATCC25922; assay: In vitro antibacterial activity, minimum inhibitory concentration; assay type: cell-based; settings: Escherichia coli
Source text: (§1) As reference compounds, Cefotaxime (CTX), Ceftazidime (CAZ) and Cefpirome (CPR) were employed.

[3] = test system: K.oxytoca C4022; assay: as above; assay type: cell-based; settings: Klebsiella oxytoca
Source text: as §1

[4] = test system: S.pyogenes ATCC 8668; assay: as above; assay type: cell-based; settings: Streptococcus pyogenes
Source text: as §1

[5] = test system: S.aureus Smith; assay: as above; assay type: cell-based; settings: Staphylococcus aureus, read-out: Minimum Inhibitory Concentration (MIC)
Source text: as §1

[6] = test system: S.marcescens ATCC27117; assay: as above; assay type: cell-based; settings: Serratia marcescens
Source text: as §1

[7] = test system: MRSA C2208; assay: as above; assay type: cell-based; settings: Staphylococcus aureus, read-out: Minimum Inhibitory Concentration (MIC)
Source text: as §1

[8] = test system: E.cloacae C4008; assay: as above; assay type: cell-based; settings: Enterobacter cloacae
Source text: as §1

[9] = test system: S.aureus ATCC29213; assay: as above; assay type: cell-based; settings: Staphylococcus aureus
Source text: as §1

[10] = test system: S.aureus C4036; assay: as above; assay type: cell-based; settings: Staphylococcus aureus
Source text: as §1

[11] = test system: P.aeruginosa ATCC27853; assay: as above; assay type: cell-based; settings: Pseudomonas aeruginosa
Source text: as §1

[12] = test system: P.mirabilis ATCC25933; assay: as above; assay type: cell-based; settings: Proteus mirabilis
Source text: as §1

[13] = test system: E.coli C4002; assay: as above; assay type: cell-based; settings: Escherichia coli
Source text: as §1

[14] = test system: P.aeruginosa C2027; assay: as above; assay type: cell-based; settings: Pseudomonas aeruginosa
Source text: as §1

[15] = test system: K.pneumoniae C1040; assay: as above; assay type: cell-based; settings: Klebsiella pneumoniae
Source text: as §1

[16] = test system: S.marcescens C1052; assay: as above; assay type: cell-based; settings: Serratia marcescens
Source text: as §1

[17] = test system: S.pyogenes C4003; assay: as above; assay type: cell-based; settings: Streptococcus pyogenes
Source text: as §1

[18] = test system: E.cloacae C4009; assay: as above; assay type: cell-based; settings: Enterobacter cloacae
Source text: as §1

[19] = test system: P.aeruginosa C4070; assay: as above; assay type: cell-based; settings: Pseudomonas aeruginosa
Source text: as §1

[20] = test system: P.rettgeri ATCC9919; assay: as above; assay type: cell-based; settings: Providencia rettgeri
Source text: as §1

[21] = test system: S.Faecalis ATCC29212; assay: as above; assay type: cell-based; settings: Enterococcus faecalis
Source text: as §1

[22] = test system: E.coli ATCC10536; assay: as above; assay type: cell-based; settings: Escherichia coli
Source text: as §1

[23] = test system: S.epidermidis ATCC12228; assay: as above; assay type: cell-based; settings: Staphylococcus epidermidis
Source text: as §1

[24] = test system: K.pneumoniae ATCC10031; assay: as above; assay type: cell-based; settings: Klebsiella pneumoniae
Source text: as §1

[25] = test system: S.typhimurium C4045; assay: as above; assay type: cell-based; settings: Salmonella enterica, read-out: Minimum Inhibitory Concentration (MIC)
Source text: as §1

[26] = test system: P.aeruginosa ATCC10145; assay: as above; assay type: cell-based; settings: Pseudomonas aeruginosa
Source text: as §1

[27] = E.coli ATCC25922, read-out: Minimum Inhibitory Concentration (MIC)
[28] = K.oxytoca C4022, read-out: Minimum Inhibitory Concentration (MIC)
[29] = ATCC8668, S.pyogenes ATCC 8668, read-out: Minimum Inhibitory Concentration (MIC)
[30] = S.marcescens ATCC27117, read-out: Minimum Inhibitory Concentration (MIC)
[31] = E.cloacae C4008, read-out: Minimum Inhibitory Concentration (MIC)
[32] = S.aureus ATCC29213, read-out: Minimum Inhibitory Concentration (MIC)
[33] = S.aureus C4036, read-out: Minimum Inhibitory Concentration (MIC)
[34] = P.aeruginosa ATCC27853, read-out: Minimum Inhibitory Concentration (MIC)
[35] = P.mirabilis ATCC25933, read-out: Minimum Inhibitory Concentration (MIC)
[36] = E.coli C4002, read-out: Minimum Inhibitory Concentration (MIC)
[37] = P.aeruginosa C2027, read-out: Minimum Inhibitory Concentration (MIC)
[38] = K.pneumoniae C1040, read-out: Minimum Inhibitory Concentration (MIC)
[39] = S.marcescens C1052, read-out: Minimum Inhibitory Concentration (MIC)
[40] = S.pyogenes C4003, read-out: Minimum Inhibitory Concentration (MIC)
[41] = E.cloacae C4009, read-out: Minimum Inhibitory Concentration (MIC)
[42] = P.aeruginosa C4070, read-out: Minimum Inhibitory Concentration (MIC)
[43] = P.rettgeri ATCC9919, read-out: Minimum Inhibitory Concentration (MIC)
[44] = E.coli ATCC10536, read-out: Minimum Inhibitory Concentration (MIC)
[45] = S.epidermidis ATCC12228, read-out: Minimum Inhibitory Concentration (MIC)
[46] = K.pneumoniae ATCC10031, read-out: Minimum Inhibitory Concentration (MIC)
[47] = P.aeruginosa ATCC10145, read-out: Minimum Inhibitory Concentration (MIC)

`CC(C)(O/N=C(\C(=O)N[C@@H]1C(=O)N2C(C(=O)[O-])=C(C[n+]3ccccc3)CS[C@H]12)c1csc(N)n1)C(=O)O` [CAZ, Ceftazidime, reference compound] gave a half-life ([1]; in vivo) of 12.3 min, an MIC ([2]; ATCC25922, read-out: Minimum Inhibitory Concentration (MIC)) of 0.2 µg/mL (≈ 0.366 µM) and an MIC ([3]; C4022, read-out: Minimum Inhibitory Concentration (MIC)) of 0.78 µg/mL (≈ 1.43 µM). It also gave an MIC ([4]; ATCC8668, read-out: Minimum Inhibitory Concentration (MIC)) of 0.1 µg/mL (≈ 0.183 µM), an MIC [5] of 6.25 µg/mL (≈ 11.4 µM) and an MIC ([6]; ATCC27117, read-out: Minimum Inhibitory Concentration (MIC)) of 0.1 µg/mL (≈ 0.183 µM). It also gave an MIC ([7]; MRSA) of over 100 µg/mL, an MIC ([8]; C4008, read-out: Minimum Inhibitory Concentration (MIC)) of 0.05 µg/mL (≈ 0.0915 µM) and an MIC ([9]; ATCC29213, read-out: Minimum Inhibitory Concentration (MIC)) of 6.25 µg/mL (≈ 11.4 µM). It also gave an MIC ([10]; C4036, read-out: Minimum Inhibitory Concentration (MIC)) of 6.25 µg/mL (≈ 11.4 µM), an MIC ([11]; ATCC27853, read-out: Minimum Inhibitory Concentration (MIC)) of 3.13 µg/mL (≈ 5.73 µM) and an MIC ([12]; ATCC25933, read-out: Minimum Inhibitory Concentration (MIC)) of 0.05 µg/mL (≈ 0.0915 µM). It also gave an MIC ([13]; C4002, read-out: Minimum Inhibitory Concentration (MIC)) of 0.1 µg/mL (≈ 0.183 µM), an MIC ([14]; C2027, read-out: Minimum Inhibitory Concentration (MIC)) of 0.78 µg/mL (≈ 1.43 µM) and an MIC ([15]; C1040, read-out: Minimum Inhibitory Concentration (MIC)) of 0.05 µg/mL (≈ 0.0915 µM). For the same compound, the MIC ([16]; C1052, read-out: Minimum Inhibitory Concentration (MIC)) was 0.2 µg/mL (≈ 0.366 µM), the MIC ([17]; C4003, read-out: Minimum Inhibitory Concentration (MIC)) was 0.2 µg/mL (≈ 0.366 µM) and the MIC ([18]; C4009, read-out: Minimum Inhibitory Concentration (MIC)) was 0.05 µg/mL (≈ 0.0915 µM). It also gave an MIC ([19]; C4070, read-out: Minimum Inhibitory Concentration (MIC)) of 1.56 µg/mL (≈ 2.85 µM), an MIC ([20]; ATCC9919, read-out: Minimum Inhibitory Concentration (MIC)) of 0.025 µg/mL (≈ 0.0457 µM) and an MIC [21] of over 100 µg/mL. For the same compound, the MIC ([22]; ATCC10536, read-out: Minimum Inhibitory Concentration (MIC)) was 0.05 µg/mL (≈ 0.0915 µM), the MIC ([23]; ATCC12228, read-out: Minimum Inhibitory Concentration (MIC)) was 3.13 µg/mL (≈ 5.73 µM) and the MIC ([24]; ATCC10031, read-out: Minimum Inhibitory Concentration (MIC)) was 0.05 µg/mL (≈ 0.0915 µM). For the same compound, the MIC ([25]; TYPHIMURIUM) was 0.2 µg/mL (≈ 0.366 µM) and the MIC ([26]; ATCC10145, read-out: Minimum Inhibitory Concentration (MIC)) was 1.56 µg/mL (≈ 2.85 µM).
`CO/N=C(\C(=O)N[C@@H]1C(=O)N2C(C(=O)[O-])=C(C[n+]3cccc4c3CCC4)CS[C@H]12)c1csc(N)n1` [CPR, Cefpirome, reference compound] showed a half-life [1] of 19.5 min, an MIC [2, 27] of 0.05 µg/mL (≈ 0.0972 µM) and an MIC [3, 28] of 1.56 µg/mL (≈ 3.03 µM). It also gave an MIC [4, 29] of 0.007 µg/mL (≈ 0.0136 µM), an MIC ([5]; S.aureus Smith) of 0.39 µg/mL (≈ 0.758 µM) and an MIC [6, 30] of 0.05 µg/mL (≈ 0.0972 µM). For the same compound, the MIC ([7]; MRSA C2208) was over 100 µg/mL, the MIC [8, 31] was 0.013 µg/mL (≈ 0.0253 µM) and the MIC [9, 32] was 0.78 µg/mL (≈ 1.52 µM). For the same compound, the MIC [10, 33] was 0.39 µg/mL (≈ 0.758 µM), the MIC [11, 34] was 3.13 µg/mL (≈ 6.08 µM) and the MIC [12, 35] was 0.05 µg/mL (≈ 0.0972 µM). For the same compound, the MIC [13, 36] was 0.05 µg/mL (≈ 0.0972 µM), the MIC [14, 37] was 0.39 µg/mL (≈ 0.758 µM) and the MIC [15, 38] was 0.025 µg/mL (≈ 0.0486 µM). It also gave an MIC [16, 39] of 0.05 µg/mL (≈ 0.0972 µM), an MIC [17, 40] of 0.007 µg/mL (≈ 0.0136 µM) and an MIC [18, 41] of 0.013 µg/mL (≈ 0.0253 µM). It also gave an MIC [19, 42] of 6.25 µg/mL (≈ 12.1 µM), an MIC [20, 43] of 0.013 µg/mL (≈ 0.0253 µM) and an MIC [21] of 50 µg/mL (≈ 97.2 µM). The MIC [22, 44] was 0.013 µg/mL (≈ 0.0253 µM), the MIC [23, 45] was 0.2 µg/mL (≈ 0.389 µM) and the MIC [24, 46] was 0.013 µg/mL (≈ 0.0253 µM). For the same compound, the MIC ([25]; S.typhimurium C4045) was 0.025 µg/mL (≈ 0.0486 µM) and the MIC [26, 47] was 6.25 µg/mL (≈ 12.1 µM).
For `CO/N=C(\C(=O)N[C@@H]1C(=O)N2C(C(=O)[O-])=C(C[n+]3ccc4[nH]c(=O)[nH]c4c3)CS[C@H]12)c1nsc(N)n1` [Ex. 5, 7-β-[(Z)-2-(5-Amino-1,2,4-thiadiazol-3-yl)-2-methoxyiminoacetamido]-3-[2-(1H,3H)-oxo-imidazo[4,5-c]pyridiniummethyl]-3-cephem-4-carboxylate], the half-life [1] was 24 min, the MIC [2, 27] was 0.013 µg/mL (≈ 0.0245 µM) and the MIC [3, 28] was 0.78 µg/mL (≈ 1.47 µM). It also gave an MIC [4, 29] of 0.013 µg/mL (≈ 0.0245 µM), an MIC ([5]; S.aureus Smith) of 1.56 µg/mL (≈ 2.93 µM) and an MIC [6, 30] of 0.007 µg/mL (≈ 0.0132 µM). For the same compound, the MIC ([7]; MRSA C2208) was over 100 µg/mL, the MIC [8, 31] was 0.002 µg/mL (≈ 0.00376 µM) and the MIC [9, 32] was 1.56 µg/mL (≈ 2.93 µM). It also gave an MIC [10, 33] of 1.56 µg/mL (≈ 2.93 µM), an MIC [11, 34] of 0.78 µg/mL (≈ 1.47 µM) and an MIC [12, 35] of 0.025 µg/mL (≈ 0.047 µM). The MIC [13, 36] was 0.007 µg/mL (≈ 0.0132 µM), the MIC [14, 37] was 0.78 µg/mL (≈ 1.47 µM) and the MIC [15, 38] was 0.004 µg/mL (≈ 0.00753 µM). It also gave an MIC [16, 39] of 0.025 µg/mL (≈ 0.047 µM), an MIC [17, 40] of 0.013 µg/mL (≈ 0.0245 µM) and an MIC [18, 41] of 0.007 µg/mL (≈ 0.0132 µM). For the same compound, the MIC [19, 42] was 1.56 µg/mL (≈ 2.93 µM), the MIC [20, 43] was 0.007 µg/mL (≈ 0.0132 µM) and the MIC [21] was over 100 µg/mL. It also gave an MIC [22, 44] of 0.004 µg/mL (≈ 0.00753 µM), an MIC [23, 45] of 0.78 µg/mL (≈ 1.47 µM) and an MIC [24, 46] of 0.004 µg/mL (≈ 0.00753 µM). It also gave an MIC ([25]; S.typhimurium C4045) of 0.007 µg/mL (≈ 0.0132 µM) and an MIC [26, 47] of 1.56 µg/mL (≈ 2.93 µM).

Source: patent US5389627A, “Cephem compounds” (priority 1993, dated 1995)
